Experimental findings from ChEMBL document CHEMBL1128445, “Antiinflammatory 4,5-diarylpyrroles. 2. Activity as a function of cyclooxygenase-2 inhibition” (J Med Chem, 1995) are described below.

Each structure is given as a SMILES string.

In series [1] the test system is Rattus norvegicus. Kind of series: In vivo effective dose required for antiinflammatory activity in rat adjuvant arthritis model. It counts as functional.
Series [2] has as its target T1, Prostaglandin G/H synthase 1 (Ovis aries, UniProt P05979).
T1 sequence (P05979 whole entry): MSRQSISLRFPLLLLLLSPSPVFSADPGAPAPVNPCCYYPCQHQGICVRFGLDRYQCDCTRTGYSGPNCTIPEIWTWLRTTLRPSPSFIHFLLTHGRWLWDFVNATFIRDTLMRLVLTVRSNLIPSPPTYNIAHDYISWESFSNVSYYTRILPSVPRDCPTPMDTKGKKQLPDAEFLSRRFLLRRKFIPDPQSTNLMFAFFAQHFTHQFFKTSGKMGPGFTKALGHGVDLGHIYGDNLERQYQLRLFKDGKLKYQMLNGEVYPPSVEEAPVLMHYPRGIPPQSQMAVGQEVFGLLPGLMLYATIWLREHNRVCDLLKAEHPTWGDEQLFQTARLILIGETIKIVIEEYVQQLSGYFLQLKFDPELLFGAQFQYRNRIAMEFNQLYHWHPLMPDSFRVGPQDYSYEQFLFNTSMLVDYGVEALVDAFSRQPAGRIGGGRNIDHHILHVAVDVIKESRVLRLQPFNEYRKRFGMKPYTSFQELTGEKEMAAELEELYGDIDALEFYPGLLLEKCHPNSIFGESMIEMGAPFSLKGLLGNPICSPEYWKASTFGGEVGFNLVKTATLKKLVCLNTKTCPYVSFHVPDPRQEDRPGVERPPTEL
Kind of series: Tested for inhibitory activity against Prostaglandin G/H synthase 1 from ovine.

Series [3] concerns Rattus norvegicus. As to the kind of experiment: The compound was tested for maximum blood level reached in rats at 15.9 uM/Kg after peroral administration. Details: dose 15.9 uM/Kg, route oral. As to conditions: in vivo, po. It counts as ADME, organism-based.
In series [4] the test system is Rattus norvegicus. Kind of series: The compound was tested for maximum blood level reached in rats at 15.9 uM/Kg after intravenous administration. It counts as ADME, organism-based. Details: dose 15.9 uM/Kg, route intravenous. The note with it: in vivo, 15.9 µmol/kg.

On to `CS(=O)(=O)c1ccc(-c2[nH]c(SC#N)cc2-c2ccc(F)cc2)cc1`, for which the ED50 in series [1] stood at 10.47 µM. The IC50 in series [2] was 219 µM.

In the case of `CS(=O)(=O)c1ccc(-c2[nH]c(Br)cc2-c2ccc(F)cc2)cc1`, the Cmax is given as 3 uM l-1 in series [3] (15.9 µmol/kg) and 2 uM l-1 in series [4]. The ED50 in series [1] is 2.66 µM. The compound also had an IC50 in series [2] of 132 µM.

For the compound `CS(=O)(=O)c1ccc(-c2[nH]c(Br)c(Cl)c2-c2ccc(F)cc2)cc1`, the ED50 in series [1] stood at 9.98 µM.

Consider `CC(=O)n1c(Br)cc(-c2ccc(F)cc2)c1-c1ccc(S(C)(=O)=O)cc1`, for which the ED50 in series [1] turned out to be 82.95 µM.

Regarding `CS(=O)(=O)c1ccc(-c2[nH]c(I)c(I)c2-c2ccc(F)cc2)cc1`, the ED50 in series [1] came to 72.82 µM. Also, in series [2], half-maximal inhibition (IC50) required 127 µM.

Take `CS(=O)(=O)c1ccc(-c2[nH]c(I)cc2-c2ccc(F)cc2)cc1`: the ED50 in series [1] worked out at 49.86 µM. In series [2], this compound showed an IC50 of more than 300 µM.

For `Cn1c(Br)c(Br)c(-c2ccc(F)cc2)c1-c1ccc(S(C)(=O)=O)cc1`, in series [1], the ED50 was determined as 8.54 µM. This compound had an IC50 in series [2] of 767 µM.

For `Cn1c(Cl)c(Cl)c(-c2ccc(F)cc2)c1-c1ccc(S(C)(=O)=O)cc1`, the ED50 in series [1] was found to be 12.55 µM. For the same compound, the IC50 in series [2] was 650 µM.

`CS(=O)(=O)c1ccc(-c2[nH]c(C(=O)C(F)(F)F)cc2-c2ccc(F)cc2)cc1`: in series [1], the ED50 is 47.16 µM. The compound also registered an IC50 in series [2] of 580 µM.

`Cn1ccc(-c2ccc(F)cc2)c1-c1ccc(S(C)(=O)=O)cc1`: the ED50 in series [1] was more than 303 µM. In addition, in series [2], the IC50 is more than 300 µM.

On to `Cn1c(Br)cc(-c2ccc(F)cc2)c1-c1ccc(S(C)(=O)=O)cc1`, for which the Cmax in series [3] (15.9 µmol/kg) was found to be 1.5 uM l-1; in series [4], 2.9 uM l-1. Further, the ED50 in series [1] came to 4.16 µM. The compound also displayed an IC50 in series [2] of 516 µM.

With `CS(=O)(=O)c1ccc(-c2[nH]c(S(C)(=O)=O)cc2-c2ccc(F)cc2)cc1`, the ED50 in series [1] worked out at 93.02 µM. Further, the IC50 in series [2] was more than 300 µM.

With `CS(=O)(=O)c1ccc(-c2[nH]c(Cl)c(Cl)c2-c2ccc(F)cc2)cc1`, the ED50 in series [1] amounted to 3.9 µM. Also, the IC50 in series [2] was 20 µM.

On to `CS(=O)(=O)c1ccc(-c2[nH]c(Cl)c(Br)c2-c2ccc(F)cc2)cc1`, for which, in series [1], the ED50 worked out at 7.93 µM. Further, the IC50 in series [2] stood at 44 µM.

As for `CC(C)(C)OC(=O)n1c(Br)cc(-c2ccc(F)cc2)c1-c1ccc(S(C)(=O)=O)cc1`, in series [1], the ED50 is 32 µM. Further, the IC50 in series [2] is more than 300 µM.

In series [3], `CS(=O)(=O)c1ccc(-c2[nH]ccc2-c2ccc(F)cc2)cc1` showed a Cmax of less than 0.1 uM l-1. In series [1], the ED50 is more than 317 µM. In series [2], this compound gave a half-inhibitory concentration (IC50) of 373 µM.

Regarding `CS(=O)(=O)c1ccc(-c2[nH]c([N+](=O)[O-])cc2-c2ccc(F)cc2)cc1`, the ED50 in series [1] was 24.97 µM.

For the compound `CS(=O)(=O)c1ccc(-c2[nH]c(Cl)cc2-c2ccc(F)cc2)cc1`, the Cmax is listed as 2.3 uM l-1 in series [3] (15.9 µmol/kg) and 1.4 uM l-1 in series [4]. The IC50 in series [2] was found to be 94 µM.

Regarding `CSc1cc(-c2ccc(F)cc2)c(-c2ccc(S(C)(=O)=O)cc2)[nH]1`, the ED50 in series [1] came out at 4.89 µM. The compound further gave an IC50 in series [2] of 36 µM.

As to `CS(=O)(=O)c1ccc(-c2[nH]c(C#N)cc2-c2ccc(F)cc2)cc1`, the Cmax in series [3] (15.9 µmol/kg) is recorded as 2.9 uM l-1; in series [4], 4.1 uM l-1. Moreover, the ED50 in series [1] was found to be 3.82 µM.

On to `CC(=O)Oc1ccccc1C(=O)O` [ASPIRIN], for which, in series [1], the ED50 was determined as 1942.7 µM.

In the case of `CC(C)Cc1ccc(C(C)C(=O)O)cc1` (stereo not given) [IBUPROFEN], the ED50 in series [1] worked out at 484.8 µM.

For `COc1ccc2c(c1)c(CC(=O)O)c(C)n2C(=O)c1ccc(Cl)cc1` [INDOMETHACIN], the ED50 in series [1] stood at 0.84 µM.

`CCCCC1C(=O)N(c2ccccc2)N(c2ccccc2)C1=O` [PHENYLBUTAZONE]: in series [1], the ED50 came to 32.4 µM. In series [2], this compound came in with an IC50 of 384 µM.

On to `CN1C(C(=O)Nc2ccccn2)=C(O)c2ccccc2S1(=O)=O` [PIROXICAM], for which the ED50 in series [1] was 1.3 µM.
